The text below walks through data of ChEMBL document CHEMBL1143409, “Efflux-related resistance to norfloxacin, dyes, and biocides in bloodstream isolates of Staphylococcus aureus” (2007).

For orientation: MIC50 means an inhibitory concentration at the 50% level, which refers to growth in some studies and to a panel of isolates in others. Read a low MIC50 as greater potency. As usually defined, the MIC90 is the lowest concentration that inhibits either 90% of growth or 90% of the strains tested, depending on the study. Read a high MIC90 as weaker potency.

≈ marks a conversion by molar mass, not a printed value.

The subject of assay [1] is Staphylococcus aureus. Nature of the assay: Antimicrobial activity against methicillin-resistant Staphylococcus aureus effluxing isolate. Format: functional.
In assay [2] the test system is Staphylococcus aureus. The experiment in a line: Inhibition of multidrug-resistant efflux pump in methicillin-resistant Staphylococcus aureus effluxing isolate assessed as fold reduction of dequalinium MIC at 10 ug/ml by microdilution method. The assay is classed as functional. Background: Broth dilution looks for growth in wells or tubes with falling amounts of substance.

Assay [3] deals with Staphylococcus aureus. Nature of the assay: Inhibition of multidrug-resistant efflux pump in methicillin-resistant Staphylococcus aureus effluxing isolate assessed as fold reduction of Norfloxacin MIC at 10 ug/ml by microdilution method. The assay is classed as functional.
Assay [4] deals with Staphylococcus aureus. Nature of the assay: Inhibition of multidrug-resistant efflux pump in methicillin-resistant Staphylococcus aureus effluxing isolate assessed as fold reduction of ethidium-bromide MIC at 10 ug/ml by microdilution method. Format: functional.
The test system of assay [5] is Staphylococcus aureus. Nature of the assay: Inhibition of multidrug-resistant efflux pump in methicillin-resistant Staphylococcus aureus effluxing isolate assessed as fold reduction of tetraphenylphosphonium bromide MIC at 10 ug/ml by microdilution method. Format: functional.
Assay [6] concerns Staphylococcus aureus. Nature of the assay: Inhibition of multidrug-resistant efflux pump in methicillin-resistant Staphylococcus aureus effluxing isolate assessed as fold reduction of acriflavine MIC at 10 ug/ml by microdilution method. The assay is classed as functional.
For assay [7], the system named is Staphylococcus aureus. Nature of the assay: Inhibition of multidrug-resistant efflux pump in methicillin-resistant Staphylococcus aureus effluxing isolate assessed as fold reduction of chlorehexidin MIC at 10 ug/ml by microdilution method. The assay is classed as functional.
In assay [8] the test system is Staphylococcus aureus. Nature of the assay: Inhibition of multidrug-resistant efflux pump in methicillin-resistant Staphylococcus aureus effluxing isolate assessed as fold reduction of citramide MIC at 10 ug/ml by microdilution method. The assay is classed as functional, organism-based.

`Cc1cc(N)c2ccccc2[n+]1CCCCCCCCCC[n+]1c(C)cc(N)c2ccccc21.[Cl-].[Cl-]` [DEQUALINIUM CHLORIDE]: in the assay on Staphylococcus aureus [1], the MIC50 amounted to 1.25 µg/mL and the MIC90 was 5 µg/mL. The “fold change (FC)” value in the assay with Staphylococcus aureus [2] was 4.
For `CCn1cc(C(=O)O)c(=O)c2cc(F)c(N3CCNCC3)cc21` [NORFLOXACIN], in the assay on Staphylococcus aureus [1], the MIC50 amounted to 12.5 µg/mL (≈ 39.1 µM) and the MIC90 is more than 100 µg/mL. Also, in the assay with Staphylococcus aureus [3], the “fold change (FC)” value is 4.
For the molecule `CC[n+]1c(-c2ccccc2)c2cc(N)ccc2c2ccc(N)cc21.[Br-]` [HOMIDIUM BROMIDE], in the assay with Staphylococcus aureus [1], the MIC50 came out at 6.25 µg/mL and the MIC90 worked out at 25 µg/mL. For the same molecule, the “fold change (FC)” value with Staphylococcus aureus [4] is given as 8.
In the assay on Staphylococcus aureus [1], `[Br-].c1ccc([P+](c2ccccc2)(c2ccccc2)c2ccccc2)cc1` [TETRAPHENYLPHOSPHONIUM BROMIDE] gave an MIC50 of 25 µg/mL and an MIC90 of 50 µg/mL. For the same molecule, the “fold change (FC)” value with Staphylococcus aureus [5] was 4.
Consider `C[n+]1c2cc(N)ccc2cc2ccc(N)cc21.[Cl-]` [EUFLAVINE], for which, in the assay with Staphylococcus aureus [1], the MIC50 is 12.5 µg/mL and the MIC90 is 50 µg/mL. Also, the “fold change (FC)” value in the assay on Staphylococcus aureus [6] was 4.
For `N=C(NCCCCCCNC(=N)NC(=N)Nc1ccc(Cl)cc1)NC(=N)Nc1ccc(Cl)cc1` [CHLORHEXIDINE], in the assay with Staphylococcus aureus [1], the MIC50 is 0.31 µg/mL (≈ 0.613 µM) and the MIC90 came to 0.63 µg/mL (≈ 1.25 µM). In addition, the “fold change (FC)” value in the assay on Staphylococcus aureus [7] is recorded as 8.
In the assay on Staphylococcus aureus [1], CETRIMIDE gave an MIC50 of 0.63 µg/mL and an MIC90 of 1.25 µg/mL. In addition, the fold change (FC) with Staphylococcus aureus [8] was 4.
